Test results taken from patent US12509457B2, “Bicyclic nitrogen containing heterocycles as inhibitors of salt-induced kinase SIK2” (priority 2019, dated 2025).
Like-named read-outs stand apart in the source and are kept apart here.

Assays:
Format in all cases: biochemical
SIK2 = SIK2 (Homo sapiens, UniProt Q9H0K1); assay: SIK2 kinase assay, IMAP fluorescence polarization; details: 50 or 100 μM ATP; average; read-out: SIK2-AVERAGE Ki
SIK1 = SIK1 (Homo sapiens, UniProt P57059); assay: SIK1 kinase assay, IMAP fluorescence polarization; details: 50 or 100 μM ATP; average; read-out: SIK1-AVERAGE Ki
SIK3 = SIK3 (Homo sapiens, UniProt Q9Y2K2); assay: SIK3 kinase assay, IMAP fluorescence polarization; details: 50 or 100 μM ATP; average; read-out: SIK3-AVERAGE Ki
Abl = Abl (Homo sapiens, UniProt P00519); assay: Abl kinase assay, IMAP fluorescence polarization; details: 50 or 100 μM ATP; average; read-out: Abl-AVERAGE Ki
Src = Src (Homo sapiens, UniProt P12931); assay: Src kinase assay, IMAP fluorescence polarization; details: 50 or 100 μM ATP; average; read-out: Src-AVERAGE Ki
EPHA2 = EPHA2 (Homo sapiens, UniProt P29317); assay: EPHA2 kinase assay, IMAP fluorescence polarization

SIK1, sequence (P57059 whole entry): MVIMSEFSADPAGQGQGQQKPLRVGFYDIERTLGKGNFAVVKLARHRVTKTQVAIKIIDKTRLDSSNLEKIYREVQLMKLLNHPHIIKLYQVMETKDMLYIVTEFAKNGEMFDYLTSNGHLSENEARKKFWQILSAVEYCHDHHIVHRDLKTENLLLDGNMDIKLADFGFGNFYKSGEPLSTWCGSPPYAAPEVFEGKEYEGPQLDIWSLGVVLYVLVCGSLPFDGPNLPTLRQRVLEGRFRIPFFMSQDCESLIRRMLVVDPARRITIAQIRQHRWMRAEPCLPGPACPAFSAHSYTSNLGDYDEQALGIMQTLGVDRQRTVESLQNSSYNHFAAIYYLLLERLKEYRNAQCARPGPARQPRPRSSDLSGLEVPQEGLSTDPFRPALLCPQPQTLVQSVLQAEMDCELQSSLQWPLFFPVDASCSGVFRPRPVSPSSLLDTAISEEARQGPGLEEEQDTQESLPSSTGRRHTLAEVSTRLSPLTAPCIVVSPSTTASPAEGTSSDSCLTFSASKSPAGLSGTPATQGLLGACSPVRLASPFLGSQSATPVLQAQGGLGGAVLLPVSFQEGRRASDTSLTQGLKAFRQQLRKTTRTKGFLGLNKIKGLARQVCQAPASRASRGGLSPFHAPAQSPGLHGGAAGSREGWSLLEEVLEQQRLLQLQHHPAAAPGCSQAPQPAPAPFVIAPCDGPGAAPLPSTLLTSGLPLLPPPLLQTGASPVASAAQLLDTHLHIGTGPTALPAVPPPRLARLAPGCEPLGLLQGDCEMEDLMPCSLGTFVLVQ
SIK2, sequence (Q9H0K1 whole entry): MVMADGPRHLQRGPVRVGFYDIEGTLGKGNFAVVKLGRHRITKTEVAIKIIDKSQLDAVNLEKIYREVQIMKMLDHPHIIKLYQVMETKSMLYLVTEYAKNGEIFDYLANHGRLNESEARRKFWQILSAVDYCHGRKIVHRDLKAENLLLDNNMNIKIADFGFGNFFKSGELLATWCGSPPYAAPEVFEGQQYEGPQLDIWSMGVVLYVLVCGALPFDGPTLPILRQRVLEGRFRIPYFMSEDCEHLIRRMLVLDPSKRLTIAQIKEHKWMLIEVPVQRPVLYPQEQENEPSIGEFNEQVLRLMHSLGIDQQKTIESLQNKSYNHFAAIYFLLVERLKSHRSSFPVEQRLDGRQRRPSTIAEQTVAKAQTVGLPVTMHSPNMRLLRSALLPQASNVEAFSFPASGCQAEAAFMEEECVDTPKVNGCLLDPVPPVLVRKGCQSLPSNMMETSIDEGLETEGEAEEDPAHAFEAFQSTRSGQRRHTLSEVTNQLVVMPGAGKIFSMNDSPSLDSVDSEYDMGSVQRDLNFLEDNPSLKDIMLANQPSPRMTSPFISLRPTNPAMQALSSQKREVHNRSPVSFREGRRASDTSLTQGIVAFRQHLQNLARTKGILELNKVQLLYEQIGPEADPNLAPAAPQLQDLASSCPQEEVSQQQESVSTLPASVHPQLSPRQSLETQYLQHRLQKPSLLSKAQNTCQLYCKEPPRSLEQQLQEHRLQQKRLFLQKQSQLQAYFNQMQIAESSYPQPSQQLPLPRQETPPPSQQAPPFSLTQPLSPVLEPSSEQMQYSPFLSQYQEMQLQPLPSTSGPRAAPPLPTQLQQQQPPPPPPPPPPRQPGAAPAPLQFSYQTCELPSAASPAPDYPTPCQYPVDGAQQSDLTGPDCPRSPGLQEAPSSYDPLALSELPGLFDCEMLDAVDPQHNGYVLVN
Src, sequence (P12931 whole entry): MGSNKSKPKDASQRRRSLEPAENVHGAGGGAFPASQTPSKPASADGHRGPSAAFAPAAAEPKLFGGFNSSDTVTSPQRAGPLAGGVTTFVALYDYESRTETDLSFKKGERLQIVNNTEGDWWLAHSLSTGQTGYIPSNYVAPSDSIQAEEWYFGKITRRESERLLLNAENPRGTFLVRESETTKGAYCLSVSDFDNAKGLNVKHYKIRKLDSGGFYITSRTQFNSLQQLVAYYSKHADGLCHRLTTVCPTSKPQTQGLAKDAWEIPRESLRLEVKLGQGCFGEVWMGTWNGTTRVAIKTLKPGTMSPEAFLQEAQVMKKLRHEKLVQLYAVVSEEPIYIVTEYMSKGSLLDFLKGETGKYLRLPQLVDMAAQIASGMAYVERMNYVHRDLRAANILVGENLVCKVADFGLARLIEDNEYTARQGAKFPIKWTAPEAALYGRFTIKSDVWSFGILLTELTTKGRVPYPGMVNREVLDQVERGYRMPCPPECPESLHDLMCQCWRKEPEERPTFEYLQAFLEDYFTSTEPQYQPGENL
SIK3, sequence (Q9Y2K2 whole entry): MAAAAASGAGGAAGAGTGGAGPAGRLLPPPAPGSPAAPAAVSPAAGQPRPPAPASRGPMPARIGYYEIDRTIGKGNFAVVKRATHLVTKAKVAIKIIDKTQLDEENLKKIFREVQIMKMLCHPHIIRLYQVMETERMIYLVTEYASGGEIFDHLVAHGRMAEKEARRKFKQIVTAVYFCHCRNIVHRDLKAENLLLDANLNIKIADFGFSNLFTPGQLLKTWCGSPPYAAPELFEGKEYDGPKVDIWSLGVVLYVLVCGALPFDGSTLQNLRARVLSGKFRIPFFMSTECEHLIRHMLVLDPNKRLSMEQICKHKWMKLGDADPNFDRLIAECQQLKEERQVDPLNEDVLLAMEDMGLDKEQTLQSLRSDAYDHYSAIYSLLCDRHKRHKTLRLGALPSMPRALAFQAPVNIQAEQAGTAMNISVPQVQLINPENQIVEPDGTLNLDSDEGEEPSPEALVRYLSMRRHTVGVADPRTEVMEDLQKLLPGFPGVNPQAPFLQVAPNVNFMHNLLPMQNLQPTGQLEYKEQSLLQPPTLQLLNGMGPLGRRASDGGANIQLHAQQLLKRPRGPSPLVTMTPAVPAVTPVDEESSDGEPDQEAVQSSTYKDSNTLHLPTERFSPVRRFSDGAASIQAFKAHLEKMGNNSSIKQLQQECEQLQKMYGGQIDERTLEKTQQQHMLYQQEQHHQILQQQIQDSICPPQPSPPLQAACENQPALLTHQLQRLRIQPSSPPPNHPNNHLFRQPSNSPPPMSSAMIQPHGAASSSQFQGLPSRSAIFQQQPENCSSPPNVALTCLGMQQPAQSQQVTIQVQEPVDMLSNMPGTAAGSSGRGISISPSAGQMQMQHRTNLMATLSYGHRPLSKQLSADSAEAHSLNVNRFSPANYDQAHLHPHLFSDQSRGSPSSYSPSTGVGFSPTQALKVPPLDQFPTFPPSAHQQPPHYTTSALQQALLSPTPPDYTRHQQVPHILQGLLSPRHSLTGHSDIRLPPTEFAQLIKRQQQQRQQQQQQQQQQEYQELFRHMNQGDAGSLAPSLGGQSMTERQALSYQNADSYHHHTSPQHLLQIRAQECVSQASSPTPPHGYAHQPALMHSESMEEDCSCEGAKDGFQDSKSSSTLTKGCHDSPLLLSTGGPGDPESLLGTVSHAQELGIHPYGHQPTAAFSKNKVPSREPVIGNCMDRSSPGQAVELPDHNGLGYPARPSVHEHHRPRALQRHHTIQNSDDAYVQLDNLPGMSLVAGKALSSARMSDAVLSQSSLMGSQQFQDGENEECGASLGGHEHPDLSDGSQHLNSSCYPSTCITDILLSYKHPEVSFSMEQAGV
Abl, sequence (P00519 whole entry): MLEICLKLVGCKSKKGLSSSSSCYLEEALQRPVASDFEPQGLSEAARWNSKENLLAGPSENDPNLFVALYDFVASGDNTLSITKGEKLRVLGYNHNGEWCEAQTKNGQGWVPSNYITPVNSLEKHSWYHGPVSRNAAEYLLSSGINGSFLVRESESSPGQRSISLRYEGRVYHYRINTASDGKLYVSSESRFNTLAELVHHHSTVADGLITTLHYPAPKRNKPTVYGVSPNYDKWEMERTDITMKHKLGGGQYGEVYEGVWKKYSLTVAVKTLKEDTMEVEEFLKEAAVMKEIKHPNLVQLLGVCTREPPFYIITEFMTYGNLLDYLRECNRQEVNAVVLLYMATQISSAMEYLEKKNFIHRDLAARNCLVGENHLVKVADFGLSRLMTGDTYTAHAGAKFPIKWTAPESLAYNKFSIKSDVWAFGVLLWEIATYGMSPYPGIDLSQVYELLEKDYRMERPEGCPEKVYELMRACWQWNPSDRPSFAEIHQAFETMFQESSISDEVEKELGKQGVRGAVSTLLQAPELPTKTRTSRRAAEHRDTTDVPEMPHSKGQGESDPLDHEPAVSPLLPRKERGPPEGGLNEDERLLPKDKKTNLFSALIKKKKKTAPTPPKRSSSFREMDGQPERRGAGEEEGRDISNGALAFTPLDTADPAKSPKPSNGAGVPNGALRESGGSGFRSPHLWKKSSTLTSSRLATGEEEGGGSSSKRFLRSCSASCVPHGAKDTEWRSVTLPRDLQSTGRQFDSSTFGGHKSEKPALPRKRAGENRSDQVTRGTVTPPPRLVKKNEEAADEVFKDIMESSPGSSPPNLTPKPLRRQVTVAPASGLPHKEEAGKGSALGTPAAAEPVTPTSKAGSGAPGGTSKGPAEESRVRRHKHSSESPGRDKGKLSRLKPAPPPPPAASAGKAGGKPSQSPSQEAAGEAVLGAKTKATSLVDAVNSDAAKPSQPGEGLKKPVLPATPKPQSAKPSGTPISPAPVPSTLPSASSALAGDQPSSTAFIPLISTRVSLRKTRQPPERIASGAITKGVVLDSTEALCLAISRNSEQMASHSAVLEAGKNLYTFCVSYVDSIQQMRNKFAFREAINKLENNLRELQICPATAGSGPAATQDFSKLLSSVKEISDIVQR

Row | Structure (SMILES) | Ki (SIK2) [nM] | Ki (SIK1) [nM] | Ki (SIK3) [nM] | Ki (Abl) [nM] | Ki (Src) [nM] | Ki (EPHA2; 50 or 100 μM ATP, average) [nM] | Ki (EPHA2) [nM]
1 | Cc1cccc(F)c1N1Cc2cnc(N)cc2N([C@H]2CCCNCC2)C1=O [Example 54, 7-amino-1-[(4S)-azepan-4-yl]-3-(2-fluoro-6-methyl-phenyl)-4H-pyrido[4,3-d]pyrimidin-2-one] | 0.719 | 2.08 | 4.14 | 64.9 | 423 | 213 | 
2 | CNC1CCCC(N2C(=O)N(c3c(C)cccc3F)Cc3cnc(N)cc32)C1 (stereo not drawn) [Example 57, 7-amino-3-(2-fluoro-6-methyl-phenyl)-1-[3-(methylamino)cyclohexyl]-4H-pyrido[4,3-d]pyrimidin-2-one] | 0.396 | 1.1 | 3.05 | 17 | 61.5 | 42.6 | 
3 | Cc1cccc(F)c1N1Cc2cnc(N)cc2N([C@H]2CC[C@H](N)CC2)C1=O [Example 58, trans-7-Amino-1-(4-aminocyclohexyl)-3-(2-fluoro-6-methyl-phenyl)-4H-pyrido[4,3-d]pyrimidin-2-one] | 0.121 | 0.45 | 0.279 | 28.8 | 18.9 | 46.5 | 
4 | Cc1cccc(F)c1N1Cc2cnc(N)cc2N([C@H]2CC[C@H](N(C)C)CC2)C1=O [Example 59, trans-7-Amino-1-[4-(dimethylamino)cyclohexyl]-3-(2-fluoro-6-methyl-phenyl)-4H-pyrido[4,3-d]pyrimidin-2-one] | 0.1 | 0.292 | 0.143 | 7.31 | 29.7 | 123 | 
5 | CN[C@H]1CC[C@@H](N2C(=O)N(c3c(C)cccc3F)Cc3cnc(N)nc32)CC1 [Example 60, cis-7-Amino-3-(2-fluoro-6-methyl-phenyl)-1-[4-(methylamino)cyclohexyl]-4H-pyrimido[4,5-d]pyrimidin-2-one] | 0.464 | 1.38 | 2.6 | 18 | 73.6 | 40.1 | 
6 | CN[C@H]1CC[C@H](N2C(=O)N(c3c(C)cccc3F)Cc3cnc(N)nc32)CC1 [Example 61, trans-7-amino-3-(2-fluoro-6-methyl-phenyl)-1-[4-(methylamino)cyclohexyl]-4H-pyrimido[4,5-d]pyrimidin-2-one] | 0.101 | 0.171 | 0.28 | 28.7 | 36.4 | 19.8 | 
7 | Cc1cccc(F)c1N1Cc2cnc(N)cc2N([C@H]2CC[C@@H](N)CC2)C1=O [Example 62, cis-7-Amino-1-(4-aminocyclohexyl)-3-(2-fluoro-6-methyl-phenyl)-4H-pyrido[4,3-d]pyrimidin-2-one] | 0.147 | 0.743 | 0.944 | 42.4 | 31.2 | 28.1 | 
8 | CN[C@H]1CC[C@@H](N2C(=O)N(c3c(C)cccc3F)Cc3cnc(N)cc32)CC1 [Example 63, cis-7-amino-3-(2-fluoro-6-methyl-phenyl)-1-[4-(methylamino)cyclohexyl]-4H-pyrido[4,3-d]pyrimidin-2-one] | 0.676 | 2.2 | 4.71 | 11 | 40.5 | 57.6 | 
9 | CN[C@H]1CC[C@H](N2C(=O)N(c3c(C)cccc3F)Cc3cnc(N)cc32)CC1 [Example 64, trans-7-amino-3-(2-fluoro-6-methyl-phenyl)-1-[4-(methylamino)cyclohexyl]-4H-pyrido[4,3-d]pyrimidin-2-one] | 0.343 | 0.733 | 1.35 | 25.5 | 39.4 | 97.4 | 
10 | Cc1cccc(F)c1N1Cc2cnc(N)nc2N([C@H]2CC[C@@H](N)CC2)C1=O [Example 74, 7-amino-1-(4-aminocyclohexyl)-3-(2-fluoro-6-methyl-phenyl)-4H-pyrimido[4,5-d]pyrimidin-2-one] | 0.356 | 1.08 | 1.98 | 22.6 | 49 | 16.3 | 
11 | Cc1cccc(F)c1N1Cc2cnc(N)cc2N([C@H]2CCNC2)C1=O [Example 78, 7-amino-3-(2-fluoro-6-methyl-phenyl)-1-[(3S)-pyrrolidin-3-yl]-4H-pyrido[4,3-d]pyrimidin-2-one] | 1.62 | 1.28 | 15.4 | > 1000 | > 1000 | > 1000 | 
12 | Cc1cccc(F)c1N1Cc2cnc(N)cc2N([C@H]2CCN(C)C2)C1=O [Example 79, 7-amino-3-(2-fluoro-6-methyl-phenyl)-1-[(3S)-1-methylpyrrolidin-3-yl]-4H-pyrido[4,3-d]pyrimidin-2-one] | 6.5 | 9.67 | 85.4 | 488 | > 10000 |  | 164

Results, then the compound that gave them:

Row | Ki (SIK2) [nM] | Ki (SIK1) [nM] | Ki (SIK3) [nM] | Ki (Abl) [nM] | Ki (Src) [nM] | Ki (EPHA2; 50 or 100 μM ATP, average) [nM] | Ki (EPHA2) [nM] | Structure (SMILES)
13 | 2.24 | 9.45 | 68 | 517 | 2870 | 815 |  | Cc1cccc(F)c1N1Cc2cnc(N)cc2N([C@H]2CCCCNC2)C1=O [Example 53, 7-amino-1-[(3S)-azepan-3-yl]-3-(2-fluoro-6-methyl-phenyl)-4H-pyrido[4,3-d]pyrimidin-2-one]
14 | 1.11 | 2.8 | 20.8 | > 1000 | > 1000 | 149 |  | Cc1cccc(F)c1N1Cc2cnc(N)nc2N([C@H]2CCNC2)C1=O [Example 65, 7-Amino-3-(2-fluoro-6-methyl-phenyl)-1-[(3S)-pyrrolidin-3-yl]-4H-pyrimido[4,5-d]pyrimidin-2-one]
15 | 3.15 | 5.83 | 41.3 | 261 | > 10000 | 127 |  | Cc1cccc(F)c1N1Cc2cnc(N)nc2N([C@@H]2CCNC2)C1=O [Example 67, 7-amino-3-(2-fluoro-6-methyl-phenyl)-1-[(3R)-pyrrolidin-3-yl]-4H-pyrimido[4,5-d]pyrimidin-2-one]
16 | 0.197 | 0.397 | 0.845 | 15.3 | 47.7 | 22.3 |  | Cc1cccc(F)c1N1Cc2cnc(N)nc2N([C@@H]2CCCNCC2)C1=O [Example 68, 7-amino-1-[(4R)-azepan-4-yl]-3-(2-fluoro-6-methyl-phenyl)-4H-pyrimido[4,5-d]pyrimidin-2-one]
17 | 0.0997 | 0.407 | 0.926 | 19.7 | 44.2 | 14.7 |  | Cc1cccc(F)c1N1Cc2cnc(N)nc2N([C@H]2CCCNCC2)C1=O [Example 69, 7-amino-1-[(4S)-azepan-4-yl]-3-(2-fluoro-6-methyl-phenyl)-4H-pyrimido[4,5-d]pyrimidin-2-one]
18 | 0.278 | 0.907 | 5.92 | 85.7 | 114 | 73.8 |  | Cc1cccc(F)c1N1Cc2cnc(N)nc2N([C@H]2CCCCNC2)C1=O [Example 70, 7-amino-1-[(3S)-azepan-3-yl]-3-(2-fluoro-6-methyl-phenyl)-4H-pyrimido[4,5-d]pyrimidin-2-one]
19 | 0.368 | 1.26 | 6.28 | 104 | 391 | 88.5 |  | Cc1cccc(F)c1N1Cc2cnc(N)nc2N([C@H]2CCCNC2)C1=O [Example 71, 7-amino-3-(2-fluoro-6-methyl-phenyl)-1-[(3S)-3-piperidyl]-4H-pyrimido[4,5-d]pyrimidin-2-one]
20 | 1.14 | 1.93 | 21.1 | 19.8 | 50.4 | 23.7 |  | Cc1cccc(F)c1N1Cc2cnc(N)nc2N([C@@H]2CCCCNC2)C1=O [Example 72, 7-amino-1-[(3R)-azepan-3-yl]-3-(2-fluoro-6-methyl-phenyl)-4H-pyrimido[4,5-d]pyrimidin-2-one]
21 | 0.94 | 1.3 | 9.92 | 36.8 | 77.2 | 56.6 |  | Cc1cccc(F)c1N1Cc2cnc(N)nc2N([C@@H]2CCCNC2)C1=O [Example 73, 7-amino-3-(2-fluoro-6-methyl-phenyl)-1-[(3R)-3-piperidyl]-4H-pyrimido[4,5-d]pyrimidin-2-one]
22 | 0.209 | 0.681 | 3.04 | 13.8 | 11.6 | 9.26 |  | Cc1cccc(F)c1N1Cc2cnc(N)nc2N(C2CCCC(N)C2)C1=O (stereo not drawn) [Example 75, 7-amino-1-(3-aminocyclohexyl)-3-(2-fluoro-6-methyl-phenyl)-4H-pyrimido[4,5-d]pyrimidin-2-one]
23 | 0.205 | 0.612 | 1.18 | 4.22 | 29.2 | 9.16 |  | Cc1cccc(F)c1N1Cc2cnc(N)nc2N(C2CCC(N)C2)C1=O (stereo not drawn) [Example 76, 7-amino-1-(3-aminocyclopentyl)-3-(2-fluoro-6-methyl-phenyl)-4H-pyrimido[4,5-d]pyrimidin-2-one]
24 | 0.222 | 0.685 | 0.739 | 27.7 | 64.6 | 17.3 |  | Cc1cccc(F)c1N1Cc2cnc(N)nc2N([C@H]2CC[C@H](N)CC2)C1=O [Example 77, 7-amino-1-(4-aminocyclohexyl)-3-(2-fluoro-6-methyl-phenyl)-4H-pyrimido[4,5-d]pyrimidin-2-one]
